In PubChem BioAssay AID258 (DTP/NCI, 2004):
Several values for one entry are separate records, joined by “and”; a condition that tells them apart may be missing. Equal entries are not always repeated. Toxic doses and inconclusive results are not listed. The calls were made as follows: active = survival T/C of 150% or more; inactive = T/C below 125% in these data.

System: CD2F1 mice, L1210 leukemia sc, survival T/C
Test: NCI In Vivo Anticancer Drug Screen. Data for tumor model L1210 Leukemia (subcutaneous) in CD2F1 (CDF1) mice
Settings: endpoint: median survival time, higher = longer survival
Summary of the method: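 Read-out: survival or tumor size. Value = treated (T) / vehicle control (C). Transplantable tumor in mice.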

Measured: T/C

CS(=O)(=O)CS(=O)(=O)OCCCl
active: dose: 6.2 mg/kg/injection, schedule: Q03HX024 (ip), vehicle: other 154 % of control | dose: 11.8 mg/kg/injection, schedule: Q03HX008 (ip), vehicle: dextrose 187 % of control | dose: 12.5 mg/kg/injection, schedule: Q03HX008 (ip), vehicle: other 155 % of control | dose: 12.5 mg/kg/injection, schedule: Q03HX024 (ip), vehicle: other 240 % of control | dose: 16.8 mg/kg/injection, schedule: Q03HX008 (ip), vehicle: dextrose 217 % of control | dose: 24.0 mg/kg/injection, schedule: Q01DX009 (ip), vehicle: dextrose 168 % of control | dose: 24.0 mg/kg/injection, schedule: Q03HX008 (ip), vehicle: dextrose 600 % of control | dose: 25.0 mg/kg/injection, schedule: Q01DX009 (ip), vehicle: other 176 % of control | dose: 25.0 mg/kg/injection, schedule: Q01DX009 (ip), vehicle: saline with Tween-80 154 % of control | dose: 25.0 mg/kg/injection, schedule: Q03HX008 (ip), vehicle: other 618 % of control | dose: 25.0 mg/kg/injection, schedule: Q03HX024 (ip), vehicle: other 618 % of control | dose: 34.3 mg/kg/injection, schedule: Q01DX005 (ip), vehicle: dextrose 183 % of control | dose: 34.3 mg/kg/injection, schedule: Q01DX009 (ip), vehicle: dextrose 204 % of control | dose: 34.3 mg/kg/injection, schedule: Q03HX008 (ip), vehicle: dextrose 600 % of control | dose: 49.0 mg/kg/injection, schedule: Q01DX001 (ip), vehicle: dextrose 153 % of control | dose: 49.0 mg/kg/injection, schedule: Q01DX002 (ip), vehicle: dextrose 180 % of control | dose: 49.0 mg/kg/injection, schedule: Q01DX005 (ip), vehicle: dextrose 238 % of control | dose: 49.0 mg/kg/injection, schedule: Q01DX009 (ip), vehicle: dextrose 270 % of control | dose: 49.0 mg/kg/injection, schedule: Q03HX008 (ip), vehicle: dextrose 600 % of control | dose: 50.0 mg/kg/injection, schedule: Q01DX005 (ip), vehicle: other 207 % of control | dose: 50.0 mg/kg/injection, schedule: Q01DX005 (iv), vehicle: other 226 % of control | dose: 50.0 mg/kg/injection, schedule: Q01DX009 (ip), vehicle: other 317 % of control | dose: 50.0 mg/kg/injection, schedule: Q01DX009 (ip), vehicle: saline with Tween-80 242 % of control | dose: 50.0 mg/kg/injection, schedule: Q01DX009 (oral), vehicle: other 168 % of control | dose: 50.0 mg/kg/injection, schedule: Q04DX003 (ip), vehicle: other 209 % of control | dose: 70.0 mg/kg/injection, schedule: Q01DX001 (ip), vehicle: dextrose 180 % of control | dose: 70.0 mg/kg/injection, schedule: Q01DX002 (ip), vehicle: dextrose 290 % of control | dose: 70.0 mg/kg/injection, schedule: Q01DX005 (ip), vehicle: dextrose 600 % of control | dose: 70.0 mg/kg/injection, schedule: Q01DX009 (ip), vehicle: dextrose 600 % of control | dose: 100.0 mg/kg/injection, schedule: Q01DX001 (ip), vehicle: dextrose 240 % of control | dose: 100.0 mg/kg/injection, schedule: Q01DX001 (ip), vehicle: other 618 % of control | dose: 100.0 mg/kg/injection, schedule: Q01DX001 (iv), vehicle: other 618 % of control | dose: 100.0 mg/kg/injection, schedule: Q01DX002 (ip), vehicle: dextrose 600 % of control | dose: 100.0 mg/kg/injection, schedule: Q01DX005 (ip), vehicle: dextrose 600 % of control | dose: 100.0 mg/kg/injection, schedule: Q01DX005 (ip), vehicle: other 618 % of control | dose: 100.0 mg/kg/injection, schedule: Q01DX005 (iv), vehicle: other 618 % of control | dose: 100.0 mg/kg/injection, schedule: Q01DX009 (ip), vehicle: dextrose 600 % of control | dose: 100.0 mg/kg/injection, schedule: Q01DX009 (ip), vehicle: other 216 % of control | dose: 100.0 mg/kg/injection, schedule: Q01DX009 (oral), vehicle: other 240 % of control | dose: 100.0 mg/kg/injection, schedule: Q04DX003 (ip), vehicle: other 353 % of control | dose: 142.9 mg/kg/injection, schedule: Q01DX001 (ip), vehicle: dextrose 600 % of control | dose: 142.9 mg/kg/injection, schedule: Q01DX002 (ip), vehicle: dextrose 600 % of control | dose: 200.0 mg/kg/injection, schedule: Q01DX001 (oral), vehicle: other 618 % of control | dose: 200.0 mg/kg/injection, schedule: Q01DX009 (oral), vehicle: other 384 % of control
inactive: dose: 1.5 mg/kg/injection, schedule: Q03HX024 (ip), vehicle: other 106 % of control | dose: 3.1 mg/kg/injection, schedule: Q03HX008 (ip), vehicle: other 109 % of control | dose: 3.1 mg/kg/injection, schedule: Q03HX024 (ip), vehicle: other 113 % of control | dose: 6.2 mg/kg/injection, schedule: Q01DX005 (iv), vehicle: other 104 % of control | dose: 6.2 mg/kg/injection, schedule: Q03HX008 (ip), vehicle: other 115 % of control | dose: 12.5 mg/kg/injection, schedule: Q01DX001 (iv), vehicle: other 106 % of control | dose: 12.5 mg/kg/injection, schedule: Q01DX005 (iv), vehicle: other 114 % of control | dose: 12.5 mg/kg/injection, schedule: Q01DX009 (ip), vehicle: other 122 % of control | dose: 12.5 mg/kg/injection, schedule: Q01DX009 (ip), vehicle: saline with Tween-80 123 % of control | dose: 12.5 mg/kg/injection, schedule: Q04DX003 (ip), vehicle: other 112 % of control | dose: 25.0 mg/kg/injection, schedule: Q01DX001 (ip), vehicle: other 111 % of control | dose: 25.0 mg/kg/injection, schedule: Q01DX001 (iv), vehicle: other 119 % of control | dose: 25.0 mg/kg/injection, schedule: Q04DX003 (ip), vehicle: other 124 % of control | dose: 50.0 mg/kg/injection, schedule: Q01DX001 (oral), vehicle: other 107 % of control | dose: 50.0 mg/kg/injection, schedule: Q03HX008 (ip), vehicle: other 103 % of control | dose: 142.9 mg/kg/injection, schedule: Q01DX005 (ip), vehicle: dextrose 101 % of control

S=P(N1CC1)(N1CC1)N1CC1
active: dose: 6.0 mg/kg/injection, schedule: Q01DX009 (sc), vehicle: saline 166 % of control and 176 % of control | dose: 24.0 mg/kg/injection, schedule: Q01DX009 (ip), vehicle: water 194 % of control | dose: 24.0 mg/kg/injection, schedule: Q01DX009 (sc), vehicle: water 157 % of control
inactive: dose: 1.5 mg/kg/injection, schedule: Q01DX009 (ip), vehicle: water 107 % of control | dose: 1.5 mg/kg/injection, schedule: Q01DX009 (sc), vehicle: water 105 % of control | dose: 3.0 mg/kg/injection, schedule: Q01DX009 (ip), vehicle: water 105 % of control | dose: 3.0 mg/kg/injection, schedule: Q01DX009 (sc), vehicle: saline 121 % of control | dose: 3.0 mg/kg/injection, schedule: Q01DX009 (sc), vehicle: water 101 % of control | dose: 6.0 mg/kg/injection, schedule: Q01DX009 (ip), vehicle: water 121 % of control | dose: 6.0 mg/kg/injection, schedule: Q01DX009 (sc), vehicle: water 122 % of control | dose: 12.0 micrograms/kg/injection, schedule: Q01DX009 (ip), vehicle: saline 100 % of control | dose: 12.0 micrograms/kg/injection, schedule: Q01DX009 (sc), vehicle: saline 107 % of control | dose: 25.0 micrograms/kg/injection, schedule: Q01DX009 (ip), vehicle: saline 104 % of control | dose: 25.0 micrograms/kg/injection, schedule: Q01DX009 (sc), vehicle: saline 98 % of control | dose: 50.0 micrograms/kg/injection, schedule: Q01DX009 (ip), vehicle: saline 104 % of control | dose: 50.0 micrograms/kg/injection, schedule: Q01DX009 (sc), vehicle: saline 100 % of control | dose: 100.0 micrograms/kg/injection, schedule: Q01DX009 (ip), vehicle: saline 100 % of control | dose: 100.0 micrograms/kg/injection, schedule: Q01DX009 (sc), vehicle: saline 98 % of control | dose: 200.0 micrograms/kg/injection, schedule: Q01DX009 (ip), vehicle: saline 96 % of control | dose: 200.0 micrograms/kg/injection, schedule: Q01DX009 (sc), vehicle: saline 102 % of control | dose: 400.0 micrograms/kg/injection, schedule: Q01DX009 (ip), vehicle: saline 102 % of control | dose: 400.0 micrograms/kg/injection, schedule: Q01DX009 (sc), vehicle: saline 102 % of control

N[C@H](C(=O)O)[C@H]1ON=C(Cl)[C@@H]1O
active: dose: 64.0 mg/kg/injection, schedule: Q01DX009 (sc), vehicle: saline 152 % of control
inactive: dose: 16.0 mg/kg/injection, schedule: Q01DX009 (sc), vehicle: saline 114 % of control | dose: 1024.0 mg/kg/injection, schedule: Q01DX009 (sc), vehicle: saline 120 % of control
